Source: patent EP4644383A1 (Jiangsu Yahong Meditech Co., Ltd., priority 2022, dated 2024)
pIC50: −log10 of the molar value. Like-named read-outs stand apart in the source and are kept apart here.

Columns and labels:
[1] = tested on: RT112 cells (bladder cancer cells); experiment: Inhibition of proliferation activity of RT112 cells (CellTiter-Glo); type: cell-based; conditions: Homo sapiens, RT-112; RT112 cells, 72 hours, CTG; read-out: IC50 (nM) RT112
Protocol: The present experiment used CellTiter-Glo® Luminescent Cell Viability Assay (Promega: G7573) kit, which was a homogeneous cell viability detection method and determined the cell viability of cultured cells by quantifying ATP. • ① RT112 cells were cultured in MEM complete medium (Gibco: 51200038) (10% FBS (Gibco: 10091-148)+1% Pen Strep (Gibco: 15140122)+1% NEAA (Gibco: 11140050)) under the condition of 37°C and 5% CO2. • (2) The cells in logarithmic growth phase were harvested and counted using a […]. The trypan blue exclusion method was used to detect cell viability to ensure the cell viability was above 90%. • ③ The cell density was adjusted using MEM complete medium, and then, the cells were seeded into a 96-well cell culture plate at 90 µL/well with a total of 3000 cells. • ④ The 96-well plate with the cells was placed under the condition of 37°C and 5% CO2 to be cultured for 24 hours. • ⑤ 24 hours later, a 10-fold drug solution was prepared starting from a maximum drug concentration of 10 µM and 4-fold serially diluted into10 concentrations. Then, 10 µL of each of the serially diluted compounds was transferred to the corresponding experimental wells of a 96-well cell plate, with two replicates for each drug concentration. • ⑥ The 96-well plate with the cells that had been treated with the drugs was placed under the condition of 37°C and 5% CO2 to be further cultured for 72 hours, and then analyzed by CTG. • ⑦ The CTG reagent was melted and the cell plate was equilibrated to room temperature for 30 minutes. • ⑧ 50 µL of the CTG solution was added to each well. • ⑨ The cell plate was shaken on an orbital shaker for 5 minutes to lyse the cells. • ⑩ The cell plate was placed at room temperature for 20 minutes to stabilize the luminescence signal. The luminescence values were read to collect the data. • ⑪ The data were analyzed using XLFit excel plugin version 5.5.0.5, and fitted with non-linear S-curve regression to obtain the dose-response curves and thus calculate the IC50 values. Y = Bottom + (Top-Bottom)/((1+(IC50/X))^(∧) HillSlope [formula]
"Top" refers to the maximum response, "Bottom" refers to the minimum response, and "HillSlope" refers to the slope of the curve.
"Max" represents the average value of the cell+DMSO control, and "Min" represents the average value of the medium control+DMSO.

FGFR4 = target: T1, FGFR4 (Homo sapiens, UniProt P22455); experiment: FGFR4 kinase activity inhibition assay (LanthaScreen TR-FRET); type: biochemical; conditions: for IC50: FGFR4 kinase, TR-FRET, read-out: IC50 (nM) FGFR4
T1 construct: FGFR4's cytoplasmic domain [460-802 (terminal) amino acids]; purchased Carna 08-136
T1 sequence (P22455 460-802): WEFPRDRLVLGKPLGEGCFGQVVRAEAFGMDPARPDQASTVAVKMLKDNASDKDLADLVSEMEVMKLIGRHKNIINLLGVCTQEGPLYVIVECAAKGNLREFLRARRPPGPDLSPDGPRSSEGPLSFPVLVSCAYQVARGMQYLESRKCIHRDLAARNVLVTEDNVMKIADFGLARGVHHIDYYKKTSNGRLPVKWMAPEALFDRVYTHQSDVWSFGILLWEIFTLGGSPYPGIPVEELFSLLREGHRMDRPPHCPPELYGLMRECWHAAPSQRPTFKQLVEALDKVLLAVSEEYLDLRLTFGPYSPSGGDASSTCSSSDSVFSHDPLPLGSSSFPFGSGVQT
How it was run: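 GST-tagged cytoplasmic domains (FGFR2 aa 399-821; FGFR4 aa 460-802) were preincubated 10 min at 23 °C with compound (top 1 µM, threefold dilutions). Then 28 nM fluorescein-poly GT and 28 µM ATP were added for 30 min at 23 °C in HEPES pH 7.5 buffer. Tb-PY20 TR-FRET 520/495 ratio gave % inhibition versus DMSO and no-enzyme controls.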

FGFR3 = target: T2, FGFR3 (Homo sapiens, UniProt P22607); experiment: FGFR3 kinase activity inhibition assay (LanthaScreen TR-FRET); type: biochemical; conditions: for IC50: FGFR3 kinase, TR-FRET, read-out: IC50 (nM) FGFR3; for Selectivity (X) FGFR1/FGFR3: ratio of IC50 FGFR1/FGFR3, selectivity towards FGFR3; for Selectivity (X) FGFR2/FGFR3: ratio of IC50 FGFR2/FGFR3, selectivity towards FGFR3; for Selectivity (X) FGFR4/FGFR3: ratio of IC50 FGFR4/FGFR3, selectivity towards FGFR3
T2 construct: FGFR3's cytoplasmic domain [436-806 (terminal) amino acids]; purchased Carna 08-135
T2 sequence (P22607 436-806): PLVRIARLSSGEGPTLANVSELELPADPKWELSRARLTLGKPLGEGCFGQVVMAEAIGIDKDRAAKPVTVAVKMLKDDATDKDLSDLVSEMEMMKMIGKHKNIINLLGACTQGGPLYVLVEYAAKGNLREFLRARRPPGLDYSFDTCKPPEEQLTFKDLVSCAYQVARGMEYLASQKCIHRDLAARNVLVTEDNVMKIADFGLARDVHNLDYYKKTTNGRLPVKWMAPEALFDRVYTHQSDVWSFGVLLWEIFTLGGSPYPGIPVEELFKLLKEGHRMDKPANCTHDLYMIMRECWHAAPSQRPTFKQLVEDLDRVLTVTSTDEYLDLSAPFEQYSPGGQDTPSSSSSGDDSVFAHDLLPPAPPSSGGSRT
How it was run: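 Read-out is TR-FRET, with the 520 nm/495 nm emission ratio normalised to DMSO (max) and enzyme-free (min) controls. Enzyme was the FGFR3 cytoplasmic domain, residues 436-806. EDTA (10 mM) stopped the reaction, followed by 60 min at 22 °C before reading.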

FGFR2 = target: T3, FGFR2 (Homo sapiens, UniProt P21802); experiment: FGFR2 kinase activity inhibition assay (LanthaScreen TR-FRET); type: biochemical; conditions: for IC50: FGFR2 kinase, TR-FRET, read-out: IC50 (nM) FGFR2
T3 construct: FGFR2's cytoplasmic domain [399-821 (terminal) amino acids]; purchased Carna 08-134
T3 sequence (P21802 399-821): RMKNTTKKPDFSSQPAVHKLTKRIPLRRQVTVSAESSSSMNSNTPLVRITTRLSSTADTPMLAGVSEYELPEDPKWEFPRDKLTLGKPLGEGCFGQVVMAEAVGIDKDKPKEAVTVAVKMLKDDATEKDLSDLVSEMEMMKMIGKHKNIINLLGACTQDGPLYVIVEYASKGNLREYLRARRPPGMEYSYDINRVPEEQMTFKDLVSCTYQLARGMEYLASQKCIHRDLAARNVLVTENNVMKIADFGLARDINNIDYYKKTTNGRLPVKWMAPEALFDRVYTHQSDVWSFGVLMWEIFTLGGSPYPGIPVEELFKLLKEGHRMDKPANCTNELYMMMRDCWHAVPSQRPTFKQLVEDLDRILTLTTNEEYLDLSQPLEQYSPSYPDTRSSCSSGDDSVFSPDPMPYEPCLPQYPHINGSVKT
How it was run: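 GST-fused FGFR2 cytoplasmic domain (aa 399-821) was run as in the FGFR1 protocol: preincubated 10 min at 23 °C with compound (3-fold series from 1 µM) in 50 mM HEPES pH 7.5, 10 mM MgCl2, 4 mM DTT, 1% DMSO. A 2× mix of 28 nM fluorescein-poly GT/28 µM ATP then reacted 30 min. Tb-PY20/EDTA quench preceded the TR-FRET 520/495 read.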

IC50 [1] [nM]	IC50 (FGFR4) [nM]	IC50 (FGFR3) [nM]	Selectivity (X) FGFR1/FGFR3 (FGFR3)	Selectivity (X) FGFR2/FGFR3 (FGFR3)	Selectivity (X) FGFR4/FGFR3 (FGFR3)	IC50 (FGFR2) [nM]	SMILES	pIC50 (FGFR4)	pIC50 (FGFR3)	pIC50 (FGFR2)
18.6	10 to 100	< 1	B (B represents 20 ≤ multiple X<50)	A (A represents 1 ≤ multiple X<20)	B (B represents 20 ≤ multiple X<50)	1 to 10	CC(Oc1ccc2[nH]nc(-c3cnn(C4CN(C(=O)C(C)(C)O)C4)c3)c2c1)c1cccc2nccnc12 (stereo not shown) [Example 190, 2-hydroxy-2-methyl-1-(3-(4-(5-(1-(quinoxalin-5-yl)ethoxy)-1H-indazol-3-yl)-1H-pyrazol-1-yl)azetidin-1-yl)propan-1-one]	–	–	–
16.7	10 to 100	< 1	B (B represents 20 ≤ multiple X<50)	A (A represents 1 ≤ multiple X<20)	B (B represents 20 ≤ multiple X<50)	1 to 10	CC(=O)N1CC(n2cc(-c3n[nH]c4ccc(OC(C)c5cccc6nccnc56)cc34)cn2)C1 (stereo not shown) [Example 218, 1-(3-(4-(5-(1-(quinoxalin-5-yl)ethoxy)-1H-indazol-3-yl)-1H-pyrazol-1-yl)azetidin-1-yl)ethan-1-one]	–	–	–
15.5	10 to 100	< 1	A (A represents 1 ≤ multiple X<20)	A (A represents 1 ≤ multiple X<20)	C (C represents 50 ≤ multiple X<100)	1 to 10	CC(Oc1ccc2[nH]nc(-c3cnn(C)c3)c2c1)c1nc(C(F)F)cc2nccnc12 (stereo not shown) [Example 236, 7-(difluoromethyl)-5-(1-((3-(1-methyl-1H-pyrazol-4-yl)-1H-indazol-5-yl)oxy)ethyl)pyridino[3,4-b]pyrazine]	–	–	–

SMILES	IC50 [1] [nM]	IC50 (FGFR4) [nM]	IC50 (FGFR3) [nM]	Selectivity (X) FGFR1/FGFR3 (FGFR3)	Selectivity (X) FGFR2/FGFR3 (FGFR3)	Selectivity (X) FGFR4/FGFR3 (FGFR3)	IC50 (FGFR2) [nM]	pIC50 (FGFR4)	pIC50 (FGFR3)	pIC50 (FGFR2)
[2H]C([2H])([2H])c1cc2nccnc2c(C(C)Oc2ccc3[nH]nc(-c4cnn(C)c4)c3c2)n1 (stereo not shown) [Example 241]	13.5	–	–	B (B represents 20 ≤ multiple X<50)	A (A represents 1 ≤ multiple X<20)	A (A represents 1 ≤ multiple X<20)	–	8.00 to 9.00	> 9.00	> 9.00
